Source: US10479786B2, “Protein kinase inhibitors” (Princeton Drug Discovery Inc, priority 2016, dated 2019)

Tests used:
ACK = target: T1, ACK (Homo sapiens, UniProt Q07912); assay: Off-chip Mobility Shift Assay, kinase inhibition; assay type: biochemical; settings: at 10 nM; recombinant ACK
T1 construct: purchased Carna Biosciences, Inc

ARG = target: T2, ARG (Homo sapiens, UniProt P42684); assay: Off-chip Mobility Shift Assay, kinase inhibition; assay type: biochemical; settings: at 10 nM; recombinant ARG; read-out: inhibition
T2 construct: purchased Carna Biosciences, Inc

BMX = target: T3, BMX (Homo sapiens, UniProt P51813); assay: Off-chip Mobility Shift Assay, kinase inhibition; assay type: biochemical; settings: recombinant BMX; for inhibition at 0.001 µM: at 1 nM; for inhibition at 0.01 µM: at 10 nM
T3 construct: purchased Carna Biosciences, Inc
T3 sequence (P51813 1-675): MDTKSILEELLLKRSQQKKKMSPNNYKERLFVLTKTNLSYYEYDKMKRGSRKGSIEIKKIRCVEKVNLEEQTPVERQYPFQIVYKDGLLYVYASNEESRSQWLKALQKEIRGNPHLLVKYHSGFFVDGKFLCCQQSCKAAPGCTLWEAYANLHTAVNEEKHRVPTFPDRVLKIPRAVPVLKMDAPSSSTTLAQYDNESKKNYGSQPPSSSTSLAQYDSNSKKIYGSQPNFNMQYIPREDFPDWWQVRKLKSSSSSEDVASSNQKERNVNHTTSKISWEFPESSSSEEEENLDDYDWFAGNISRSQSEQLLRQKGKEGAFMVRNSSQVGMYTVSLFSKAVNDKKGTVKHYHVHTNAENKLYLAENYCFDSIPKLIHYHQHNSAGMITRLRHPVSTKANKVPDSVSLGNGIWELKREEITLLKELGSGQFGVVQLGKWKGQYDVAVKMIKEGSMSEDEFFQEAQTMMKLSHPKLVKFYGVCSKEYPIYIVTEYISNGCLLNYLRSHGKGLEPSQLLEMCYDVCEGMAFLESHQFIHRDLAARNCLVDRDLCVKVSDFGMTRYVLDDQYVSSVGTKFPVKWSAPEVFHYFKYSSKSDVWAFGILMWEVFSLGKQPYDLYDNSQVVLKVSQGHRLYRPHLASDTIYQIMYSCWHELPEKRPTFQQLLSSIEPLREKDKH

HCK = target: T4, HCK (Homo sapiens, UniProt P08631); assay: Off-chip Mobility Shift Assay, kinase inhibition; assay type: biochemical; settings: recombinant HCK; for inhibition at 0.001 µM: at 1 nM; for inhibition at 0.01 µM: at 10 nM, read-out: inhibition
T4 construct: purchased Carna Biosciences, Inc

PDGFRα = target: T5, PDGFRα (Homo sapiens, UniProt P16234); assay: Off-chip Mobility Shift Assay, kinase inhibition; assay type: biochemical; settings: at 10 nM; recombinant PDGFRα; read-out: inhibition
T5 construct: purchased Carna Biosciences, Inc

FYN(isoform a) = target: T6, FYN(isoform a) (Homo sapiens, UniProt P06241); assay: Off-chip Mobility Shift Assay, kinase inhibition; assay type: biochemical; settings: at 10 nM; recombinant FYN(isoform a)
T6 construct: purchased Carna Biosciences, Inc

FMS = target: T7, FMS (Homo sapiens, UniProt P07333); assay: Off-chip Mobility Shift Assay, kinase inhibition; assay type: biochemical; settings: at 10 nM; recombinant FMS
T7 construct: purchased Carna Biosciences, Inc

LCK = target: T8, LCK (Homo sapiens, UniProt P06239); assay: Off-chip Mobility Shift Assay, kinase inhibition; assay type: biochemical; settings: recombinant LCK; for inhibition at 0.001 µM: at 1 nM; for inhibition at 0.01 µM: at 10 nM
T8 construct: purchased Carna Biosciences, Inc

[1] = tested on: battery of selected protein kinases; assay: In vitro screen of a battery of selected protein kinases (summary statement); assay type: biochemical; settings: BTK, BMX, ABL, ABL(E255K), SRC, ACK, ARG, BLK, DDR2, EPHA, FGR, FMS, FRK, FYN, HCK, LCK, LYN, PDGFRα, PDGFRβ, YES, PIK3CA/PIK3R1, among others
BLK = target: T9, BLK (Homo sapiens, UniProt P51451); assay: Off-chip Mobility Shift Assay, kinase inhibition; assay type: biochemical; settings: at 10 nM; recombinant BLK
T9 construct: purchased Carna Biosciences, Inc

SU-DHL-4 = assay: Cell inhibition assay (PrestoBlue, 48 h); assay type: cell-based; settings: Homo sapiens, SU-DHL-4, 48 h, SU-DHL-4 diffuse large B-cell lymphoma cells, read-out: IC50, inhibition of growth
EPHA1 = target: T10, EPHA1 (Homo sapiens, UniProt P21709); assay: Off-chip Mobility Shift Assay, kinase inhibition; assay type: biochemical; settings: at 10 nM; recombinant EPHA1
T10 construct: purchased Carna Biosciences, Inc
T10 sequence (P21709 26-976): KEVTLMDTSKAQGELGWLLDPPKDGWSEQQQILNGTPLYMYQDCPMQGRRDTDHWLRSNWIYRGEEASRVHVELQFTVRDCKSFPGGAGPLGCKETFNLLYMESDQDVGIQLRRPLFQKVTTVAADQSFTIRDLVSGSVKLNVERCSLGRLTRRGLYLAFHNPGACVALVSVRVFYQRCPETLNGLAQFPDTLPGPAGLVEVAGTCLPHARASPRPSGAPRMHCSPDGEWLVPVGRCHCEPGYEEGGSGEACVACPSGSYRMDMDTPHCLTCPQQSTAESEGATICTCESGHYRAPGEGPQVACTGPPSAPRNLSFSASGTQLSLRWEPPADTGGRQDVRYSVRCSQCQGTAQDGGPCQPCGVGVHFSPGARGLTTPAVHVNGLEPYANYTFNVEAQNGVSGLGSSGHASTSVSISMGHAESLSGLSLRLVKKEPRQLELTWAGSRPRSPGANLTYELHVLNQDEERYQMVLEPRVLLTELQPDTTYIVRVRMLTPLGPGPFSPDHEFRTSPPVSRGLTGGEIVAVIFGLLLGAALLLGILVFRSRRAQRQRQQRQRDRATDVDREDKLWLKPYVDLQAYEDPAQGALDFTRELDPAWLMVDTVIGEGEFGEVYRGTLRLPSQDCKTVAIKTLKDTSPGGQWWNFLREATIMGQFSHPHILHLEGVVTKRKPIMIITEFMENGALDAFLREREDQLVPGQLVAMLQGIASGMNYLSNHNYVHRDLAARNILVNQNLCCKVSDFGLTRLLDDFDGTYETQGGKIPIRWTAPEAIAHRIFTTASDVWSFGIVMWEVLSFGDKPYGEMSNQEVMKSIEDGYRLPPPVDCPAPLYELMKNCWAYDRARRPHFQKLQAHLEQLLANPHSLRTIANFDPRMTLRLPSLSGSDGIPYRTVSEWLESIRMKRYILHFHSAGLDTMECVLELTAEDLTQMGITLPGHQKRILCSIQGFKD

BTK = target: T11, BTK (Homo sapiens, UniProt Q06187); assay: Off-chip Mobility Shift Assay, kinase inhibition; assay type: biochemical; settings: recombinant BTK; for inhibition at 0.001 µM: at 1 nM; for inhibition at 0.01 µM: at 10 nM
T11 construct: purchased Carna Biosciences, Inc

ABL = target: T12, ABL (Homo sapiens, UniProt P00519); assay: Off-chip Mobility Shift Assay, kinase inhibition; assay type: biochemical; settings: recombinant ABL; for inhibition at 0.001 µM: at 1 nM; for inhibition at 0.01 µM: at 10 nM
T12 construct: purchased Carna Biosciences, Inc

PIK3CA/PIK3R1 = target: T13, PIK3CA/PIK3R1 (Homo sapiens, UniProt P42336); assay: Off-chip Mobility Shift Assay, kinase inhibition; assay type: biochemical; settings: at 10 nM; recombinant PIK3CA/PIK3R1
T13 construct: purchased Carna Biosciences, Inc

LYNa = target: T14, LYNa (Homo sapiens, UniProt P07948); assay: Off-chip Mobility Shift Assay, kinase inhibition; assay type: biochemical; settings: recombinant LYNa; for inhibition at 0.001 µM: at 1 nM; for inhibition at 0.01 µM: at 10 nM, read-out: inhibition
T14 construct: purchased Carna Biosciences, Inc
T14 sequence (P07948 whole entry): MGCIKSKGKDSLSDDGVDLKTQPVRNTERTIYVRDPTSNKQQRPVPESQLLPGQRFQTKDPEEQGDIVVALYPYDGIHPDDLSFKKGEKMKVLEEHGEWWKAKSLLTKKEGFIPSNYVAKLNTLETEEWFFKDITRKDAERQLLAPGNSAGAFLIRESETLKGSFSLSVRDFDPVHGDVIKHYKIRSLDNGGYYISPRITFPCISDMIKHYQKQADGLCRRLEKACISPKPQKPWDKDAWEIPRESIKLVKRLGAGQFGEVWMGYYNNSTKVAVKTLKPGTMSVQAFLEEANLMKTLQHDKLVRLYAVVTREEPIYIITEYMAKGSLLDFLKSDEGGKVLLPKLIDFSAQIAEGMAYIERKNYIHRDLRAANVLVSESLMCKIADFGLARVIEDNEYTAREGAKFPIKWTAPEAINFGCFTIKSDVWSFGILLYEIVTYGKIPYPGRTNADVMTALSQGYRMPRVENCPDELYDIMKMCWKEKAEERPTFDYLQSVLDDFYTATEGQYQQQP

T1 sequence (Q07912 whole entry): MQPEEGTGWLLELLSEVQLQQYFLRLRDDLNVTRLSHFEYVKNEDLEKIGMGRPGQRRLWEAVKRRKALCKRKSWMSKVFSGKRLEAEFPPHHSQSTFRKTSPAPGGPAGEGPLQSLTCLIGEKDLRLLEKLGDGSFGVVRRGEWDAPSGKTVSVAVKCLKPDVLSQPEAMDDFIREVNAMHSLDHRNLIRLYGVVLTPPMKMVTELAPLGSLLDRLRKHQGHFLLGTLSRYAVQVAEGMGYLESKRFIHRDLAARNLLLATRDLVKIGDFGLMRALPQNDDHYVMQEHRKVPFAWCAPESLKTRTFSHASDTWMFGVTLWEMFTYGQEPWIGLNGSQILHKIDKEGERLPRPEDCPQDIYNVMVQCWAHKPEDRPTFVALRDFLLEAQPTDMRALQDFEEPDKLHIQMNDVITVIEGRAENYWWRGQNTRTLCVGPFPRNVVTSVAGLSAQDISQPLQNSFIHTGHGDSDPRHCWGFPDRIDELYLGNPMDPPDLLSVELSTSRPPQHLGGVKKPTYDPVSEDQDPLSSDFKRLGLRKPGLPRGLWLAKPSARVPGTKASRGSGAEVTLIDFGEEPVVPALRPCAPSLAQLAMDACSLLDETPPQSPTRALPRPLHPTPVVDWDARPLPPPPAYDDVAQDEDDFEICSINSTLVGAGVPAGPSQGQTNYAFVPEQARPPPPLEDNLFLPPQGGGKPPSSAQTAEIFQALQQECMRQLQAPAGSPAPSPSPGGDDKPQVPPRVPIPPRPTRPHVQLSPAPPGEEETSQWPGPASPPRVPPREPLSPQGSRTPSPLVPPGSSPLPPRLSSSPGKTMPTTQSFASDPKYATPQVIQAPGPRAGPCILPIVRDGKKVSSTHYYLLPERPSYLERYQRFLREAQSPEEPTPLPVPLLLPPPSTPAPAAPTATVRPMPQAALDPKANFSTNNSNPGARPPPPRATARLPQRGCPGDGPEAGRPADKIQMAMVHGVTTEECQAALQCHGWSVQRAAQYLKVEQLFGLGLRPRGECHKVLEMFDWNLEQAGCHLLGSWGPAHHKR
T8 sequence (P06239 whole entry): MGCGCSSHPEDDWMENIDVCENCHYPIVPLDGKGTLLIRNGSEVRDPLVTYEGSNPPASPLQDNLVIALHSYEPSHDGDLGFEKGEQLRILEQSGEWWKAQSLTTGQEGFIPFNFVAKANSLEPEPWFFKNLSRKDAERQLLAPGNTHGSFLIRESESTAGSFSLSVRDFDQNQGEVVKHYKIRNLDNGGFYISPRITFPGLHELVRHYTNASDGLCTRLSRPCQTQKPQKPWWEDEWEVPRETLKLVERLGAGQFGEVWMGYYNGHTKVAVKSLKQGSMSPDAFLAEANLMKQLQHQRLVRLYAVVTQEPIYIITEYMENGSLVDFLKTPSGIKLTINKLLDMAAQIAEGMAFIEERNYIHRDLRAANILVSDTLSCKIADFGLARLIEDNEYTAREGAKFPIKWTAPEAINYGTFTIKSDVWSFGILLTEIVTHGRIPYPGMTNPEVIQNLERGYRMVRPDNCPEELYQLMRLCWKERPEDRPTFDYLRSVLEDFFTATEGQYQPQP
T2 sequence (P42684 whole entry): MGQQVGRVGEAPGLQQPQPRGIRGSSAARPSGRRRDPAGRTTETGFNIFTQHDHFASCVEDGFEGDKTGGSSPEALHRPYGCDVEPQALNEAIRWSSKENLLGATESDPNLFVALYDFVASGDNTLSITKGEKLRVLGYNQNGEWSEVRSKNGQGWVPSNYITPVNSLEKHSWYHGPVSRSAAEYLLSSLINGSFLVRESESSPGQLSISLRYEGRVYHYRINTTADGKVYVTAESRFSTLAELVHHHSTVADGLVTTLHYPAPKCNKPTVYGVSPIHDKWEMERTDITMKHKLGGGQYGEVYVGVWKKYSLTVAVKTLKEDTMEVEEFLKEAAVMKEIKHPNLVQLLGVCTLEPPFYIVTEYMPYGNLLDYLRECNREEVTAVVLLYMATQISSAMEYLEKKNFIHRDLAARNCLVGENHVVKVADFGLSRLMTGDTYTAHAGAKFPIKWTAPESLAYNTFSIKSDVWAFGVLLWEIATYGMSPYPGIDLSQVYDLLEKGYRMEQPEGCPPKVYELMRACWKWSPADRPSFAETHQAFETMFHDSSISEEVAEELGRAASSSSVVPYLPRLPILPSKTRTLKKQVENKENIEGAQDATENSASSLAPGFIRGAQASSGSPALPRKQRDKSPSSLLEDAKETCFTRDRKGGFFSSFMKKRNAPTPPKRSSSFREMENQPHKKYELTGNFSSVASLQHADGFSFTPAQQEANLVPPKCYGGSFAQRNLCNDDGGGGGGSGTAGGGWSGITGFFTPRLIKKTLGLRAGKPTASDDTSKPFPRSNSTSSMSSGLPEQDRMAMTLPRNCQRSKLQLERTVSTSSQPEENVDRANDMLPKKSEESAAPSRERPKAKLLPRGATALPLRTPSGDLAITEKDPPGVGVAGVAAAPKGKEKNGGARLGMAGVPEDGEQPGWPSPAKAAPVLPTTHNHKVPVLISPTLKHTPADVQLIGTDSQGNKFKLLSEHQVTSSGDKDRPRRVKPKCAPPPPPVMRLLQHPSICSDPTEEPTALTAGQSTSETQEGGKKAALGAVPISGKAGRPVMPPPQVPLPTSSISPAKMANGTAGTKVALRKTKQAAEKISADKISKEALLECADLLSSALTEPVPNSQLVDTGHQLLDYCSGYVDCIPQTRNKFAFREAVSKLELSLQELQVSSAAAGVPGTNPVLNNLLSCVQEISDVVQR
T5 sequence (P16234 24-1089): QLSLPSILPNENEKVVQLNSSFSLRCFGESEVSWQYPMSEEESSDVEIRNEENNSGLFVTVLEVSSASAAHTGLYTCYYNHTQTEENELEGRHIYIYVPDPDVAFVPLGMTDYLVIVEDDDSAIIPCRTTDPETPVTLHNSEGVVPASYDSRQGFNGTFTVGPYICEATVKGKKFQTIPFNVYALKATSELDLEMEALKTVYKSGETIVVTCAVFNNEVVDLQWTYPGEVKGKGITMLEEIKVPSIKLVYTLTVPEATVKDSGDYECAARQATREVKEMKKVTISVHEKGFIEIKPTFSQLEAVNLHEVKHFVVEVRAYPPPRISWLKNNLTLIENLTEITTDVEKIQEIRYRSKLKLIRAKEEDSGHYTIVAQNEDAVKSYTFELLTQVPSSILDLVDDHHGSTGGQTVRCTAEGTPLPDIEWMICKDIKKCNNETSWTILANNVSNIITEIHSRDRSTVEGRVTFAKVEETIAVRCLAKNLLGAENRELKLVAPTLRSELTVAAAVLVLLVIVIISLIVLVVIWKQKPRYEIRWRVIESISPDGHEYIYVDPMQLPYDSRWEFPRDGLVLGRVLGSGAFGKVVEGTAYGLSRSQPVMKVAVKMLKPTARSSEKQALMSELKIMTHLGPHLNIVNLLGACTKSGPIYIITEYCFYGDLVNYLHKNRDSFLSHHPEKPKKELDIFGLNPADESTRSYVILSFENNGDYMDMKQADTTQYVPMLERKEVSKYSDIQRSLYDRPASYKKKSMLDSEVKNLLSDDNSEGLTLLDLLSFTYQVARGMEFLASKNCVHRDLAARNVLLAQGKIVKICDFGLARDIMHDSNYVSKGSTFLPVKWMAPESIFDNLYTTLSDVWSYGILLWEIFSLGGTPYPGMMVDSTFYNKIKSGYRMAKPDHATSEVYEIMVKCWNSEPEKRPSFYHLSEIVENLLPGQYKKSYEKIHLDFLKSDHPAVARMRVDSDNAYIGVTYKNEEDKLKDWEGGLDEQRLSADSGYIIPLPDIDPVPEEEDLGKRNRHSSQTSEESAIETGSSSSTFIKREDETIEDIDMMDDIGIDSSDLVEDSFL
T4 sequence (P08631 whole entry): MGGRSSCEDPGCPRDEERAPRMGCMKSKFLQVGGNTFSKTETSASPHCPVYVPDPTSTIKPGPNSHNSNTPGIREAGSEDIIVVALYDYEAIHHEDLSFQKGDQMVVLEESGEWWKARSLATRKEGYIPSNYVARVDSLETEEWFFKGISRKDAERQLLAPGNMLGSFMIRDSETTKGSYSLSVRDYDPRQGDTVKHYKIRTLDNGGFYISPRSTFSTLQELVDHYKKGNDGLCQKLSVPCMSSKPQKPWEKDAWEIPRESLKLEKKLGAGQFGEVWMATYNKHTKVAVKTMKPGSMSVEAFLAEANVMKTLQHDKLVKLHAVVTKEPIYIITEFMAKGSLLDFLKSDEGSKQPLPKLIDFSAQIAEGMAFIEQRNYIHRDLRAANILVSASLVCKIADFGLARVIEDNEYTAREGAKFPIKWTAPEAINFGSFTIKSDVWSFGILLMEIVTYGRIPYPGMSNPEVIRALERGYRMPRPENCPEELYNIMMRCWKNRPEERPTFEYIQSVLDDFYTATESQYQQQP

Structure (SMILES) | inhibition at 0.01 µM (ACK) [%] | inhibition at 0.01 µM (ARG) [%] | inhibition at 0.001 µM (BMX) [%] | inhibition at 0.01 µM (BMX) [%] | inhibition at 0.001 µM (HCK) [%] | inhibition at 0.01 µM (HCK) [%] | inhibition at 0.01 µM (PDGFRα) [%] | inhibition at 0.01 µM (FYN(isoform a)) [%] | inhibition at 0.01 µM (FMS) [%] | inhibition at 0.001 µM (LCK) [%] | inhibition at 0.01 µM (LCK) [%] | inhibition at 0.01 µM (BLK) [%] | IC50 (SU-DHL-4) [nM] | inhibition at 0.01 µM (EPHA1) [%] | inhibition at 0.001 µM (BTK) [%] | inhibition at 0.01 µM (BTK) [%] | inhibition at 0.001 µM (ABL) [%] | inhibition at 0.01 µM (ABL) [%] | inhibition at 0.01 µM (PIK3CA/PIK3R1) [%] | activity to inhibit kinases [1] | further results
Cc1nc(Nc2ncc(C(=O)Nc3c(C)cccc3Cl)s2)cc(N2CCC(O)CC2)n1 [Compound IX, N-(2-chloro-6-methylphenyl)-2-[[2-methyl-6-(4-hydroxypiperidin-1-yl)pyrimidin-4-yl]amino]thiazole-5-carboxamide] | > 50 | > 50 | > 50 | > 50 | > 50 | > 50 | > 50 | > 50 | > 50 | > 50 | > 50 | > 50 | < 20 | > 50 | > 50 | > 50 | > 50 | > 50 | > 50 | potent activity | inhibition at 0.001 µM (LYNa): > 50%; inhibition at 0.01 µM (LYNa): > 50%
Cc1nc(Nc2ncc(C(=O)Nc3c(C)cccc3Cl)s2)cc(N2CCCCC2)n1 [Compound VIII, N-(2-chloro-6-methylphenyl)-2-[[2-methyl-6-(piperidin-1-yl)pyrimidin-4-yl]amino]thiazole-5-carboxamide] | > 50 | > 50 | > 50 | > 50 | > 50 | > 50 | > 50 | > 50 | > 50 | > 50 | > 50 | > 50 | < 20 | > 50 | > 50 | > 50 | > 50 | > 50 | > 50 | potent activity | inhibition at 0.001 µM (LYNa): > 50%; inhibition at 0.01 µM (LYNa): > 50%
[2H]c1cc(C)c(NC(=O)c2cnc(Nc3cc(N4CC[C@@H](N)C4)nc(C)n3)s2)c(Cl)c1 [Compound VII, N-(2-chloro-4-deutero-6-methylphenyl)-2-[[2-methyl-6-((R)-3-aminopyrrolidin-1-yl)pyrimidin-4-yl]amino]thiazole-5-carboxamide] | > 50 | > 50 | > 50 | > 50 | > 50 | > 50 | > 50 | > 50 | > 50 | > 50 | > 50 | > 50 | < 20 | > 50 | > 50 | > 50 | > 50 | > 50 | > 50 | potent activity | inhibition at 0.001 µM (LYNa): > 50%; inhibition at 0.01 µM (LYNa): > 50%

Now from value to compound, other results behind:

inhibition at 0.01 µM (ACK) [%] | inhibition at 0.01 µM (ARG) [%] | inhibition at 0.001 µM (BMX) [%] | inhibition at 0.01 µM (BMX) [%] | inhibition at 0.001 µM (HCK) [%] | inhibition at 0.01 µM (HCK) [%] | inhibition at 0.01 µM (PDGFRα) [%] | inhibition at 0.01 µM (FYN(isoform a)) [%] | inhibition at 0.01 µM (FMS) [%] | inhibition at 0.001 µM (LCK) [%] | inhibition at 0.01 µM (LCK) [%] | inhibition at 0.01 µM (BLK) [%] | IC50 (SU-DHL-4) [nM] | inhibition at 0.01 µM (EPHA1) [%] | inhibition at 0.001 µM (BTK) [%] | inhibition at 0.01 µM (BTK) [%] | inhibition at 0.001 µM (ABL) [%] | inhibition at 0.01 µM (ABL) [%] | inhibition at 0.01 µM (PIK3CA/PIK3R1) [%] | Structure (SMILES) | activity to inhibit kinases [1] | further results
> 50 | > 50 | > 50 | > 50 | > 50 | > 50 | > 50 | > 50 | > 50 | > 50 | > 50 | > 50 | < 20 | > 50 | > 50 | > 50 | > 50 | > 50 | > 50 | Cc1nc(Nc2ncc(C(=O)Nc3c(C)cccc3Cl)s2)cc(N2CC[C@@H](O)C2)n1 [Compound XI, N-(2-chloro-6-methylphenyl)-2-[[2-methyl-6-((R)-3-hydroxypyrrolidin-1-yl)pyrimidin-4-yl]amino]thiazole-5-carboxamide] | potent activity | inhibition at 0.001 µM (LYNa): > 50%; inhibition at 0.01 µM (LYNa): > 50%
> 50 | > 50 | > 50 | > 50 | > 50 | > 50 | > 50 | > 50 | > 50 | > 50 | > 50 | > 50 | < 20 | > 50 | > 50 | > 50 | > 50 | > 50 | > 50 | Cc1nc(Nc2ncc(C(=O)Nc3c(C)cccc3Cl)s2)cc(N2CC[C@H](O)C2)n1 [Compound X, N-(2-chloro-6-methylphenyl)-2-[[2-methyl-6-((S)-3-hydroxypyrrolidin-1-yl)pyrimidin-4-yl]amino]thiazole-5-carboxamide] | potent activity | inhibition at 0.001 µM (LYNa): > 50%; inhibition at 0.01 µM (LYNa): > 50%
